The source of these data is PubChem BioAssay AID330 (DTP/NCI, 2004).

Molecules are shown by their SMILES. Values joined by “and” are separate entries in the source; they are usually repeats but may differ in a detail not shown here. Equal values may be shown once. Inconclusive results and toxic doses are left out.

In the assay the test system is P388 leukemia ip, CD2F1 mice, survival T/C. Briefly: NCI In Vivo Anticancer Drug Screen. Data for tumor model P388 Leukemia (intraperitoneal) in CD2F1 (CDF1) mice. To be noted: endpoint: median survival time, higher = longer survival. A digest of the protocol:
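Mice carrying the transplanted tumor received test compound or vehicle. Survival was recorded in each group, and the value is the treated-group measurement divided by that of the vehicle-treated control group.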

Where [1] appears, read: dose: 25.0 mg/kg/injection, schedule: Q01DX009 (ip), vehicle: saline with Tween-80.
Setting [2] is: dose: 50.0 mg/kg/injection, schedule: Q01DX009 (ip), vehicle: saline with Tween-80.
Setting [3] is: dose: 100.0 mg/kg/injection, schedule: Q01DX009 (ip), vehicle: saline with Tween-80.
Setting [4] is: dose: 60.0 mg/kg/injection, schedule: Q01DX005 (ip), vehicle: saline with Tween-80.
Setting [5] is: dose: 120.0 mg/kg/injection, schedule: Q01DX005 (ip), vehicle: saline with Tween-80.
The mark [6] stands for this setting: dose: 240.0 mg/kg/injection, schedule: Q01DX005 (ip), vehicle: saline with Tween-80.
[7] abbreviates: dose: 100.0 mg/kg/injection, schedule: Q01DX001 (ip), vehicle: Klucel (hydroxypropylcellulose) (HPC).
[8] abbreviates: dose: 200.0 mg/kg/injection, schedule: Q01DX001 (ip), vehicle: Klucel (hydroxypropylcellulose) (HPC).
Where [9] appears, read: dose: 100.0 mg/kg/injection, schedule: Q04DX003 (ip), vehicle: saline.
[10] abbreviates: dose: 200.0 mg/kg/injection, schedule: Q04DX003 (ip), vehicle: saline.
Where [11] appears, read: dose: 50.0 mg/kg/injection, schedule: Q01DX005 (ip), vehicle: saline with Tween-80.
[12] abbreviates: dose: 100.0 mg/kg/injection, schedule: Q01DX005 (ip), vehicle: saline with Tween-80.
[13] abbreviates: dose: 200.0 mg/kg/injection, schedule: Q01DX005 (ip), vehicle: saline with Tween-80.
Where [14] appears, read: dose: 50.0 mg/kg/injection, schedule: Q01DX005 (ip), vehicle: Klucel (hydroxypropylcellulose) (HPC).
[15] abbreviates: dose: 100.0 mg/kg/injection, schedule: Q01DX005 (ip), vehicle: Klucel (hydroxypropylcellulose) (HPC).
Setting [16] is: dose: 200.0 mg/kg/injection, schedule: Q01DX005 (ip), vehicle: Klucel (hydroxypropylcellulose) (HPC).
[17] abbreviates: dose: 50.0 mg/kg/injection, schedule: Q01DX009 (ip), vehicle: saline.

For the molecule `COc1cc2c(c(OC)c1OC)-c1ccc(SC)c(=O)cc1C(NC(=S)NC1OCC(OC(C)=O)C(OC(C)=O)C1OC(C)=O)CC2` (centres undefined), the T/C under setting [1] was 178 % of control and 184 % of control; the T/C under setting [2] was 200 % of control and 191 % of control; the T/C under setting [3] was 93 % of control and 101 % of control.

In the case of `CCOC(=O)C1=C(C(=O)c2ccc(C)cc2)C(c2cccc([N+](=O)[O-])c2)C(C(=O)c2ccc(C)cc2)=C(C(=O)OCC)N1`, the T/C is 103 % of control under setting [4], 93 % of control under setting [5] and 111 % of control under setting [6].

As to `COc1ccc2c(c1)CCC(c1ccccc1)=C2c1ccc(OCCN2CCCC2)cc1`, the T/C was 102 % of control (dose: 6.0 mg/kg/injection, schedule: Q01DX005 (ip), vehicle: Klucel (hydroxypropylcellulose) (HPC)); 105 % of control (dose: 12.0 mg/kg/injection, schedule: Q01DX005 (ip), vehicle: Klucel (hydroxypropylcellulose) (HPC)); 105 % of control (dose: 24.0 mg/kg/injection, schedule: Q01DX005 (ip), vehicle: Klucel (hydroxypropylcellulose) (HPC)); 103 % of control (dose: 48.0 mg/kg/injection, schedule: Q01DX005 (ip), vehicle: Klucel (hydroxypropylcellulose) (HPC)).

For `CNc1c(C(=O)Nc2ccccc2)c(=O)n(C)c(=O)n1C`, the T/C is 94 % of control under setting [7]; 92 % of control under setting [8]; 93 % of control (dose: 400.0 mg/kg/injection, schedule: Q01DX001 (ip), vehicle: Klucel (hydroxypropylcellulose) (HPC)).

`CC(C)(O)Cn1ccccc1=O`: the T/C reads like this: under setting [9], 98 % of control; under setting [10], 97 % of control; (dose: 400.0 mg/kg/injection, schedule: Q04DX003 (ip), vehicle: saline) 104 % of control.

As to `CN(C)CSCN(C)C`, the T/C was 103 % of control and 93 % of control under setting [1]; 100 % of control and 113 % of control under setting [2]; 102 % of control and 123 % of control under setting [3].

Turning to `CCC1CCC(=O)NC1=O` (centres undefined), the T/C under setting [4] is 103 % of control, the T/C under setting [5] was 103 % of control and the T/C under setting [6] was 98 % of control.

Take `O=C(OCC(OC(=O)c1ccccc1)C(OC(=O)c1ccccc1)C(OC(=O)c1ccccc1)c1nn[nH]n1)c1ccccc1` (centres undefined): the T/C is, setting by setting: under setting [11], 100 % of control; under setting [12], 100 % of control; under setting [13], 95 % of control.

On to `Cc1ccc(S(=O)(=O)C23N=NC(C)(C)C2C2CCC3C2)cc1` (centres undefined), for which the T/C was 102 % of control (dose: 60.0 mg/kg/injection, schedule: Q01DX005 (ip), vehicle: Klucel (hydroxypropylcellulose) (HPC)); 104 % of control (dose: 120.0 mg/kg/injection, schedule: Q01DX005 (ip), vehicle: Klucel (hydroxypropylcellulose) (HPC)); 102 % of control (dose: 240.0 mg/kg/injection, schedule: Q01DX005 (ip), vehicle: Klucel (hydroxypropylcellulose) (HPC)).

In the case of `CC(C)(C)N=C(Nc1ccccc1Cl)C(Cl)CSc1ccccc1` (centres undefined), the T/C was 100 % of control and 102 % of control under setting [14]; 100 % of control and 98 % of control under setting [15]; 105 % of control under setting [16].

As for `CCN(CC)c1ccc(N=Nc2ccc(Br)cn2)c(O)c1`, the T/C (dose: 60.0 mg/kg/injection, schedule: Q01DX005 (ip), vehicle: Klucel + Tween-80) is 104 % of control; the T/C (dose: 120.0 mg/kg/injection, schedule: Q01DX005 (ip), vehicle: Klucel + Tween-80) is 95 % of control; the T/C (dose: 240.0 mg/kg/injection, schedule: Q01DX005 (ip), vehicle: Klucel + Tween-80) is 92 % of control.

Regarding `CCOc1ccc(NC(=O)N(c2ccnc3ccccc23)C(C)CCCN(CC)CC)cc1` (centres undefined), the T/C is, setting by setting: under setting [14], 98 % of control; under setting [15], 103 % of control; under setting [16], 98 % of control.

In the case of `COc1cc2cc[n+]3c(C)c4cc5c(cc4cc3c2cc1OC)OCO5` (tested in a mixture with another compound), the T/C is 124 % of control (dose: 0.88 mg/kg/injection, schedule: Q01DX009 (ip), vehicle: saline); 166 % of control (dose: 8.33 mg/kg/injection, schedule: Q01DX009 (ip), vehicle: saline); 175 % of control (dose: 12.5 mg/kg/injection, schedule: Q01DX009 (ip), vehicle: saline); 198 % of control (dose: 18.7 mg/kg/injection, schedule: Q01DX009 (ip), vehicle: saline).

On to `Cc1ccc(S(=O)(=O)Oc2ccc3c(/C=C/[N+](=O)[O-])cn(C)c3c2)cc1`, for which the T/C is 90 % of control (dose: 50.0 mg/kg/injection, schedule: Q01DX001 (ip), vehicle: Klucel (hydroxypropylcellulose) (HPC)); 86 % of control under setting [7]; 101 % of control under setting [8].

As to `CN(C)CC(CN(C)C)C(=O)c1ccc(Oc2ccc(Cl)cc2)cc1`, the T/C is, setting by setting: (dose: 1.88 mg/kg/injection, schedule: Q01DX005 (ip), vehicle: saline) 110 % of control; (dose: 3.75 mg/kg/injection, schedule: Q01DX005 (ip), vehicle: saline) 116 % of control; (dose: 7.5 mg/kg/injection, schedule: Q01DX005 (ip), vehicle: saline) 107 % of control and 112 % of control.

Turning to `CCn1c2ccccc2c2cc(N=Nc3ccc(N)nc3N)ccc21`, the T/C is 94 % of control under setting [11], 94 % of control under setting [12] and 96 % of control under setting [13].

In the case of `CCOC(=O)C1C2CCC(O2)C1C#N` (centres undefined), the T/C is 100 % of control (dose: 15.0 mg/kg/injection, schedule: Q01DX005 (ip), vehicle: saline with Tween-80); 101 % of control (dose: 30.0 mg/kg/injection, schedule: Q01DX005 (ip), vehicle: saline with Tween-80); 93 % of control under setting [4].

`CC(=O)NC1C(S[As](C)C)OC(COC(C)=O)C(OC(C)=O)C1OC(C)=O` (centres undefined): the T/C is 102 % of control (dose: 12.5 mg/kg/injection, schedule: Q01DX009 (ip), vehicle: saline with Tween-80); 113 % of control under setting [1]; 116 % of control under setting [2]; 115 % of control (dose: 200.0 mg/kg/injection, schedule: Q01DX009 (ip), vehicle: saline with Tween-80).

For `CN1CCC(C(=O)O)(c2ccccc2)CC1`, the T/C is, setting by setting: (dose: 9.4 mg/kg/injection, schedule: Q01DX009 (ip), vehicle: saline with Tween-80) 100 % of control; (dose: 18.8 mg/kg/injection, schedule: Q01DX009 (ip), vehicle: saline with Tween-80) 98 % of control; (dose: 37.5 mg/kg/injection, schedule: Q01DX009 (ip), vehicle: saline with Tween-80) 97 % of control; (dose: 75.0 mg/kg/injection, schedule: Q01DX009 (ip), vehicle: saline with Tween-80) 111 % of control.

In the case of `O=S(=O)(SC(Cl)(Cl)Cl)c1ccc(Cl)cc1`, the T/C is, setting by setting: (dose: 12.5 mg/kg/injection, schedule: Q01DX009 (ip), vehicle: saline sonified) 100 % of control; (dose: 25.0 mg/kg/injection, schedule: Q01DX009 (ip), vehicle: saline sonified) 100 % of control; (dose: 50.0 mg/kg/injection, schedule: Q01DX009 (ip), vehicle: saline sonified) 100 % of control.

For the molecule `O=[N+]([O-])c1cnc(/C=[N+](\[O-])CCO)n1CCO`, the T/C runs as follows: under setting [17], 99 % of control; (dose: 100.0 mg/kg/injection, schedule: Q01DX009 (ip), vehicle: saline) 90 % of control; (dose: 200.0 mg/kg/injection, schedule: Q01DX009 (ip), vehicle: saline) 106 % of control.

With `CC(C)NCCO`, the T/C is 100 % of control under setting [17]; 100 % of control (dose: 50.0 mg/kg/injection, schedule: Q04DX003 (ip), vehicle: saline); 109 % of control under setting [9]; 109 % of control under setting [10].

Take `Cc1cc(=O)n(-c2ccc([N+](=O)[O-])cc2Cl)c(C)c1C(=O)O`: the T/C runs as follows: under setting [11], 103 % of control; under setting [12], 96 % of control; under setting [13], 106 % of control.

With `C=CC1CN2CCC1CC2C(O)c1ccnc2ccc(OC)cc12` (centres undefined), the T/C under setting [11] was 97 % of control; the T/C (dose: 50.0 mg/kg/injection, schedule: Q04DX003 (ip), vehicle: alcohol) is 115 % of control; the T/C under setting [12] is 104 % of control; the T/C (dose: 100.0 mg/kg/injection, schedule: Q04DX003 (ip), vehicle: alcohol) is 105 % of control; the T/C (dose: 200.0 mg/kg/injection, schedule: Q04DX003 (ip), vehicle: alcohol) was 115 % of control.
